Assay results from ChEMBL document CHEMBL5375983, “Discovery of YSR734: A Covalent HDAC Inhibitor with Cellular Activity in Acute Myeloid Leukemia and Duchenne Muscular Dystrophy” (J Med Chem, 2023).
Calls of active or inactive are those of the source. The rule behind the calls is not given here.

Tests used:
[1] = target: Histone deacetylase 1/2/3 (Homo sapiens) (UniProt Q13547+O15379+Q92769); test: […] binding affinity to HDAC1/2/3 in human MV4-11 cells assessed as increase in Ac-histone-H3 level at […] incubated for 6 hrs followed by compound washout and measured after 16 hrs by Western blot analysis; format: cell-based; settings: dose 2.5 µM
[2] = Cytotoxicity against human MRC9 cells assessed as inhibition of cell growth incubated for 72 hrs by celltiter-blue viability assay; format: toxicity, cell-based
[3] = target: T1, Histone deacetylase 2 (Homo sapiens, UniProt Q92769); test: Inhibition of HDAC2 (unknown origin) using 6-carboxyfluorescein peptide as substrate preincubated with compound for 2 hrs followed by substrate addition by electrophoretic mobility shift assay
[4] = Selectivity index, ratio of IC50 for cytotoxicity against human MRC9 cells to IC50 for cytotoxicity against human MV4-11 cells
[5] = target: T1, Histone deacetylase 2; test: Inhibition of HDAC2 (unknown origin) using 6-carboxyfluorescein peptide as substrate preincubated with compound for 6 hrs followed by substrate addition by electrophoretic mobility shift assay
[6] = tested on: MV4-11; test: Cytotoxicity against human MV4-11 cells assessed as inhibition of cell growth incubated for 72 hrs by celltiter-blue viability assay; format: functional, cell-based; settings: MV4-11, 72 h
[7] = target: T2, Histone deacetylase 1 (Homo sapiens, UniProt Q13547); test: Inhibition of HDAC1 (unknown origin) using 6-carboxyfluorescein peptide as substrate preincubated with compound followed by substrate addition by electrophoretic mobility shift assay
[8] = target: T1, Histone deacetylase 2; test: Inhibition of HDAC2 (unknown origin) using 6-carboxyfluorescein peptide as substrate preincubated with compound followed by substrate addition by electrophoretic mobility shift assay
[9] = tested on: RS4-11; test: Cytotoxicity against human RS4-11 cells assessed as inhibition of cell growth incubated for 72 hrs by celltiter-blue viability assay; format: functional, cell-based; settings: RS4-11, 72 h
[10] = target: T1, Histone deacetylase 2; test: Binding affinity to recombinant full length HDAC2 catalytic domain Cys274 (unknown origin) assessed as formation of single covalent adduct at 50 uM incubated for 2 hrs by trypsin-digest protein mapping analysis
[11] = Glutathione reactivity assessed as compound consumption at 500 nM measured after 1 to 3 hrs by LC-MS/MS analysis; format: ADME; settings: glutathione solution, time 1-3 hrs, read-out: Activity
[12] = Stability in human whole blood assessed as half life at 100 uM measured upto 40 mins by LC-MS/MS analysis; format: ADME, tissue-based
[13] = Glutathione reactivity assessed as compound consumption at 500 nM incubated for 16 hrs by LC-MS/MS analysis; format: ADME; settings: glutathione solution, read-out: Drug metabolism
[14] = Half life in CD-1 mouse at 10 mg/kg, ip measured upto 12 hrs by LC-MS/MS analysis; format: ADME, organism-based; settings: in vivo
[15] = tested on: MV4-11; test: Induction of apoptosis in human MV4-11 cells assessed as healthy cells at 1 uM measured after 6 hrs by annexin V-FITC/PI staining based FACS assay (reference value: 63.50%); format: functional
[16] = Tmax in CD-1 mouse at 10 mg/kg, ip measured upto 12 hrs by LC-MS/MS analysis; format: ADME, organism-based; settings: in vivo
[17] = tested on: MV4-11; test: Induction of apoptosis in human MV4-11 cells assessed as late apoptotic cells at 4 uM measured after 6 hrs by annexin V-FITC/PI staining based FACS assay (reference value: 16.21%); format: functional
[18] = tested on: MV4-11; test: Induction of apoptosis in human MV4-11 cells assessed as late apoptotic cells at 1 uM measured after 6 hrs by annexin V-FITC/PI staining based FACS assay (reference value: 16.21%); format: functional
[19] = MRT in CD-1 mouse at 10 mg/kg, ip measured upto 12 hrs by LC-MS/MS analysis; format: ADME, organism-based; settings: in vivo
[20] = target: T3, Histone deacetylase 11 (Homo sapiens, UniProt Q96DB2); test: Inhibition of full length recombinant human HDAC11 expressed in Sf9 cells using 6-carboxyfluorescein peptide as substrate preincubated with compound for 6 hrs followed by substrate addition and measured after 17 hrs by electrophoretic mobility shift assay
T3 sequence (Q96DB2 whole entry): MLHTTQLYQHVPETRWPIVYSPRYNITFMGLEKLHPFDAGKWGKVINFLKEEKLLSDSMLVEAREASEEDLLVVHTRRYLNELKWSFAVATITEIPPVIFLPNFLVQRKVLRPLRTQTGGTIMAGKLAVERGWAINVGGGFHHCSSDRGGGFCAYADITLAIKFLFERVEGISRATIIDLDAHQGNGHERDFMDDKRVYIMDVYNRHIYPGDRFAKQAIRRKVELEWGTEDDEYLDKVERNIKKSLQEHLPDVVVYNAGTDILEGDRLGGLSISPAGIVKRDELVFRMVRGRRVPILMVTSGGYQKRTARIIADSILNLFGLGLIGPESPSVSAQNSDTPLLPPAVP

[21] = Cmax in CD-1 mouse at 10 mg/kg, ip measured upto 12 hrs by LC-MS/MS analysis; format: ADME, organism-based; set-up: time < 12 hrs, dose 10 mg/kg, route ip; settings: in vivo
[22] = tested on: MV4-11; test: Induction of apoptosis in human MV4-11 cells assessed as healthy cells at 4 uM measured after 6 hrs by annexin V-FITC/PI staining based FACS assay (reference value: 63.50%); format: functional
[23] = AUCinfinity in CD-1 mouse at 10 mg/kg, ip measured upto 12 hrs by LC-MS/MS analysis; format: ADME, organism-based; set-up: time < 12 hrs, dose 10 mg/kg, route ip; settings: in vivo
[24] = target: T4, Histone deacetylase 3 (Homo sapiens, UniProt O15379); test: Inhibition of full length recombinant human HDAC3 expressed in Sf9 cells using 6-carboxyfluorescein peptide as substrate preincubated with compound for 6 hrs followed by substrate addition and measured after 3 hrs by electrophoretic mobility shift assay; format: cell-based
[25] = target: T2, Histone deacetylase 1; test: Inhibition of HDAC1 (unknown origin) using 6-carboxyfluorescein peptide as substrate preincubated with compound for 6 hrs followed by substrate addition by electrophoretic mobility shift assay
[26] = target: T4, Histone deacetylase 3; test: Inhibition of full length recombinant human HDAC3 expressed in Sf9 cells using 6-carboxyfluorescein peptide as substrate preincubated with compound followed by substrate addition and measured after 3 hrs by electrophoretic mobility shift assay; format: cell-based
[27] = target: T4, Histone deacetylase 3; test: Inhibition of full length recombinant human HDAC3 expressed in Sf9 cells using 6-carboxyfluorescein peptide as substrate preincubated with compound for 2 hrs followed by substrate addition and measured after 3 hrs by electrophoretic mobility shift assay; format: cell-based
[28] = target: T5, Histone deacetylase 8 (Homo sapiens, UniProt Q9BY41); test: Inhibition of full length recombinant human HDAC8 expressed in Sf9 cells using 6-carboxyfluorescein peptide as substrate preincubated with compound followed by substrate addition and measured after 3 hrs by electrophoretic mobility shift assay
T5 sequence (Q9BY41 whole entry): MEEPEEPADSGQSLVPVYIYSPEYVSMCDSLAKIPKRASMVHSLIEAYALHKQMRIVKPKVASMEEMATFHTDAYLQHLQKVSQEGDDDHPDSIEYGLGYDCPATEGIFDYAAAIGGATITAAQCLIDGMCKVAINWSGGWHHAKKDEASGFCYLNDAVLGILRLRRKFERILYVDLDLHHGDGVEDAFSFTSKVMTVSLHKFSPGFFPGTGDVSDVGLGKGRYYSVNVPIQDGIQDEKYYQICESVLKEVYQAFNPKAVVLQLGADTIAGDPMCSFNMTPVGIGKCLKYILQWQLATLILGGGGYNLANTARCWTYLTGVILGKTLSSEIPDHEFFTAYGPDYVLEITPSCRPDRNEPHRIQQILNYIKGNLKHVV

T1 sequence (Q92769 whole entry): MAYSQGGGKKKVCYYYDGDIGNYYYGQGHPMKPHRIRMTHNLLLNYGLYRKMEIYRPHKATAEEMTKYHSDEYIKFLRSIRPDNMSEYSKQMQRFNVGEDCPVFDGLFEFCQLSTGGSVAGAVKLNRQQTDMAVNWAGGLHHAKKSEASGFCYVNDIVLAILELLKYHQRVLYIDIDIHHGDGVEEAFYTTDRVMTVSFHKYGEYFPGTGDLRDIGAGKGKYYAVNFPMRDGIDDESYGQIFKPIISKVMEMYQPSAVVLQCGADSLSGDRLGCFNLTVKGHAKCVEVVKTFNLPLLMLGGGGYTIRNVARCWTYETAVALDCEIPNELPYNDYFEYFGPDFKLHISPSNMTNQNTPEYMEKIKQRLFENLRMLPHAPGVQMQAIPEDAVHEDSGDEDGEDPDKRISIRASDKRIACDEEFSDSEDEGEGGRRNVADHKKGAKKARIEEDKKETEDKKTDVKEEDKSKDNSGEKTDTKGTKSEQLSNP
T4 sequence (O15379 whole entry): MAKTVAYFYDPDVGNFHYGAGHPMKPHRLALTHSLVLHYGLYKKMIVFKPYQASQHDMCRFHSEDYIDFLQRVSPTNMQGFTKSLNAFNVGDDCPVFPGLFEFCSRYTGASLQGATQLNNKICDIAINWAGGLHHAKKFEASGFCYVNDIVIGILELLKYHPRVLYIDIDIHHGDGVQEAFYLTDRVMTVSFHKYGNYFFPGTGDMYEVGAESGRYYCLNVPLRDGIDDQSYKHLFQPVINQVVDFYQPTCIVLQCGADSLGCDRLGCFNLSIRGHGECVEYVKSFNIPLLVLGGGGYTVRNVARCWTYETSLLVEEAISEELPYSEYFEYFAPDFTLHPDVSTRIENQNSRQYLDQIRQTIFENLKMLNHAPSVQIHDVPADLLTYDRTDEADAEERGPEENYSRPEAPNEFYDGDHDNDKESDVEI
T2 sequence (Q13547 whole entry): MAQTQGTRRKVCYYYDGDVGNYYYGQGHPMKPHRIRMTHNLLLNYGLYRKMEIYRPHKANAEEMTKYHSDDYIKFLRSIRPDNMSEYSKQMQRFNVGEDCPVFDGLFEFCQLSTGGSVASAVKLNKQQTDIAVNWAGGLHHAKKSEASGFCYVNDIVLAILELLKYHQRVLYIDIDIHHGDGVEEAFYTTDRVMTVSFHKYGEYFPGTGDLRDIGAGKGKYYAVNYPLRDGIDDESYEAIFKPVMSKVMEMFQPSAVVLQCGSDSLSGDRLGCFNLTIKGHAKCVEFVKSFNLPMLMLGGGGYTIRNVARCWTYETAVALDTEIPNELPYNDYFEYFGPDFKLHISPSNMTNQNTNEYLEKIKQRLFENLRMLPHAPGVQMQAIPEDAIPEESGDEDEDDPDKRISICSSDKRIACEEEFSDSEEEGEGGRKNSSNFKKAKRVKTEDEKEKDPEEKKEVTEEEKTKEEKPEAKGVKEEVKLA

Row | Structure (SMILES) | IC50 [3] [nM] | IC50 [5] [nM] | IC50 [7] [nM] | IC50 [8] [nM] | IC50 at 72 h [2] [nM] | Ratio IC50 [4] | IC50 [6] [nM] | IC50 [9] [nM] | further results
1 | Nc1ccccc1NC(=O)c1ccc(CNC(=O)OC2CCN(S(=O)(=O)c3c(F)c(F)cc(F)c3F)CC2)cc1 | – | – | – | – | – | – | – | – | Activity [1]: Active
2 | CN(C)C/C=C/C(=O)N1CCC(OC(=O)NCc2ccc(C(=O)Nc3ccccc3N)cc2)CC1 | 295 | 180 | 200 | 808 | 31200 | 17 | 1800 | 1240 | –
3 | C=CS(=O)(=O)N1CCC(OC(=O)NCc2ccc(C(=O)Nc3ccccc3N)cc2)CC1 | 919 | 380 | 445 | > 1000 | – | – | – | – | Activity [10]: Active; degraded at 0.5 µM [11]: > 50%
4 | C=CC(=O)N1CCC[C@@H](n2nc(-c3ccc(Oc4ccccc4)cc3)c3c(N)ncnc32)C1 [IBRUTINIB] | – | – | – | – | – | – | – | – | half-life at 100 µM [12]: 64 min
5 | Nc1ccccc1NC(=O)c1ccc(CNC(=O)OCc2cccnc2)cc1 [ENTINOSTAT] | – | – | – | – | 10200 | – | 710 | 300 | degraded at 16 h, 0.5 µM [13]: < 10%; half-life [14]: 191 min; Activity [15]: 53.43%; half-life at 100 µM [12]: 45 min; Tmax [16]: 15 min; Activity [17]: 30.45%; Activity [18]: 23.15%; MRT [19]: 57.6 min; IC50 [20]: > 1000 nM; Cmax [21]: 6250 ng/mL; Activity [22]: 40.57%; AUC(0-inf) [23]: 5260 ng·h/mL
6 | Nc1ccccc1NC(=O)c1ccc(CNC(=O)OC2CCCCC2)cc1 | 490 | 274 | 903 | > 1000 | 10900 | 10 | 1070 | 620 | IC50 [24]: 36 nM; degraded at 16 h, 0.5 µM [13]: < 10%; half-life [14]: 311 min; Tmax [16]: 4.8 min; IC50 [25]: 64 nM; IC50 [26]: 273 nM; IC50 [27]: 73 nM; IC50 [28]: > 10000 nM; Cmax [21]: 2700 ng/mL; AUC(0-inf) [23]: 1810 ng·h/mL

Continued, in another order:

Row | IC50 [3] [nM] | IC50 [5] [nM] | IC50 [7] [nM] | IC50 [8] [nM] | Structure (SMILES) | IC50 at 72 h [2] [nM] | Ratio IC50 [4] | IC50 [6] [nM] | IC50 [9] [nM] | further results
7 | 823 | 393 | 685 | > 1000 | C=C=CC(=O)N1CCC(OC(=O)NCc2ccc(C(=O)Nc3ccccc3N)cc2)CC1 | – | – | – | – | –
8 | 517 | 200 | 369 | > 1000 | Nc1ccccc1NC(=O)c1ccc(CNC(=O)OC2CCN(S(=O)(=O)CCl)CC2)cc1 | 15900 | 12 | 1380 | 720 | –
9 | 759 | 328 | 665 | > 1000 | C#CC(=O)N1CCC(OC(=O)NCc2ccc(C(=O)Nc3ccccc3N)cc2)CC1 | – | – | – | – | degraded at 0.5 µM [11]: > 50%
10 | > 1000 | 720 | > 1000 | > 1000 | Nc1ccccc1NC(=O)c1ccc(CNC(=O)OC2CCN(C(=O)CCl)CC2)cc1 | – | – | – | – | degraded at 0.5 µM [11]: > 50%
11 | 861 | 379 | 592 | > 1000 | C=CC(=O)N1CCC(OC(=O)NCc2ccc(C(=O)Nc3ccccc3N)cc2)CC1 | 21600 | 9 | 2320 | 1530 | –
